In ChEMBL document CHEMBL3994662, “In vivo instability of platensimycin and platencin: Synthesis and biological evaluation of urea- and carbamate-platensimycin” (Bioorg Med Chem, 2017):
Converted amounts (≈) assume the structure as drawn.

Key:
[1] = Elimination half life in C57Bl/6 mouse at 3 mg/kg, iv administered as single dose by LC-MS/MS analysis; format: ADME, organism-based; conditions: in vivo, read-out: beta t1/2 (converted)
[2] = Elimination half life in C57Bl/6 mouse at 10 mg/kg, po administered as single dose via gavage by LC-MS/MS analysis; format: ADME, organism-based; conditions: in vivo, read-out: beta t1/2 (converted)
[3] = Cmax in C57Bl/6 mouse at 3 mg/kg, iv administered as single dose by LC-MS/MS analysis; format: ADME, organism-based; set-up: dose 3 mg/kg, route intravenous; conditions: in vivo
[4] = Cmax in C57Bl/6 mouse at 10 mg/kg, po administered as single dose via gavage by LC-MS/MS analysis; format: ADME, organism-based; set-up: dose 10 mg/kg, route oral; conditions: in vivo
Mus musculus [5] = assay: AUC (0 to 8 hrs) in C57Bl/6 mouse at 3 mg/kg, iv administered as single dose by LC-MS/MS analysis; format: ADME, organism-based; set-up: dose 3 mg/kg, time < 8 hr, route intravenous; conditions: in vivo
Mus musculus [6] = assay: AUC (0 to 8 hrs) in C57Bl/6 mouse at 10 mg/kg, po administered as single dose via gavage by LC-MS/MS analysis; format: ADME, organism-based; set-up: time < 8 hr, dose 10 mg/kg, route oral; conditions: in vivo
[7] = Observed clearance in C57Bl/6 mouse at 3 mg/kg, iv administered as single dose by LC-MS/MS analysis; format: ADME, organism-based; conditions: in vivo
[8] = Volume of distribution in C57Bl/6 mouse at 3 mg/kg, iv administered as single dose by LC-MS/MS analysis; format: ADME, organism-based; conditions: in vivo
[9] = Oral bioavailability in C57Bl/6 mouse at 10 mg/kg administered as single dose via gavage by LC-MS/MS analysis; format: ADME, organism-based; conditions: in vivo
[10] = Plasma concentration in C57Bl/6 mouse at 3 mg/kg, iv administered as single dose measured after 2 hrs by LC-MS/MS analysis; format: ADME, organism-based
Plasma [11] = assay: Drug uptake in C57Bl/6 mouse plasma at 10 mg/kg, iv administered as single dose measured after 60 mins by LC-MS/MS analysis; format: ADME, organism-based; conditions: in vivo, 1 h
Liver [12] = assay: Drug uptake in C57Bl/6 mouse liver at 10 mg/kg, iv administered as single dose measured after 60 mins by LC-MS/MS analysis; format: ADME, organism-based; conditions: in vivo, 1 h
Lung [13] = assay: Drug uptake in C57Bl/6 mouse lung at 10 mg/kg, iv administered as single dose measured after 60 mins by LC-MS/MS analysis; format: ADME, organism-based; conditions: in vivo, 1 h
Kidney [14] = assay: Drug uptake in C57Bl/6 mouse kidney at 10 mg/kg, iv administered as single dose measured after 60 mins by LC-MS/MS analysis; format: ADME, organism-based; conditions: in vivo, 1 h
[15] = Drug uptake in C57Bl/6 mouse muscle at 10 mg/kg, iv administered as single dose measured after 60 mins by LC-MS/MS analysis; format: ADME, organism-based, Muscle tissue; conditions: in vivo, 1 h
[16] = Drug uptake in C57Bl/6 mouse adipose tissue at 10 mg/kg, iv administered as single dose measured after 60 mins by LC-MS/MS analysis; format: ADME, organism-based; conditions: in vivo, 1 h
[17] = Ratio of drug level in C57Bl/6 mouse liver to plasma at 10 mg/kg, iv administered as single dose measured after 60 mins by LC-MS/MS analysis; format: ADME, organism-based
[18] = Ratio of drug level in C57Bl/6 mouse lung to plasma at 10 mg/kg, iv administered as single dose measured after 60 mins by LC-MS/MS analysis; format: ADME, organism-based
[19] = Ratio of drug level in C57Bl/6 mouse kidney to plasma at 10 mg/kg, iv administered as single dose measured after 60 mins by LC-MS/MS analysis; format: ADME, organism-based
[20] = Ratio of drug level in C57Bl/6 mouse muscle to plasma at 10 mg/kg, iv administered as single dose measured after 60 mins by LC-MS/MS analysis; format: ADME, organism-based, Muscle tissue/plasma
[21] = Ratio of drug level in C57Bl/6 mouse adipose tissue to plasma at 10 mg/kg, iv administered as single dose measured after 60 mins by LC-MS/MS analysis; format: ADME, organism-based
Brain [22] = assay: Drug uptake in C57Bl/6 mouse brain at 10 mg/kg, iv administered as single dose measured after 60 mins by LC-MS/MS analysis; format: ADME, organism-based; conditions: in vivo, 1 h
[23] = Apparent permeability by PAMPA; format: physicochemical
[24] = Drug level in C57Bl/6 mouse urine at 10 mg/kg, iv administered as single dose measured after 60 mins by LC-MS/MS analysis; format: ADME, organism-based; conditions: mouse, in vivo, 1 h
[25] = Ratio of drug level in C57Bl/6 mouse urine to plasma at 10 mg/kg, iv administered as single dose measured after 60 mins by LC-MS/MS analysis; format: ADME, organism-based; conditions: in vivo, 1 h
[26] = Intrinsic clearance in mouse hepatic microsomes at 1 uM up to 60 mins by LC-MS/MS analysis; format: ADME, Microsome; conditions: liver microsomes, read-out: CLH
[27] = Drug metabolism in mouse hepatic microsomes assessed as amide hydrolysis-mediated platensic acid formation at 1 uM up to 60 mins in presence of NADPH by LC-MS/MS analysis; format: ADME, Liver, Microsome; conditions: 1 h
[28] = Drug metabolism in mouse hepatic microsomes assessed as amide hydrolysis-mediated platensic acid formation at 1 uM up to 60 mins in absence of NADPH by LC-MS/MS analysis; format: ADME, Liver, Microsome; conditions: 1 h
[29] = Drug metabolism in mouse hepatic microsomes assessed as hydroxylation at 1 uM up to 60 mins in absence of NADPH by LC-MS/MS analysis; format: ADME, Liver, Microsome; conditions: 1 h
[30] = Drug metabolism in mouse hepatic microsomes assessed as glucuronidation of carboxylic acid at 1 uM up to 60 mins in absence of NADPH by LC-MS/MS analysis; format: ADME, Liver, Microsome; conditions: 1 h
Staphylococcus aureus = assay: Antibacterial activity against Staphylococcus aureus ATCC 25923 after 18 hrs by broth dilution method; format: functional; conditions: ATCC 25923, 18 h
Micrococcus luteus = assay: Antibacterial activity against Micrococcus luteus ATCC 9431 after 18 hrs by broth dilution method; format: functional; conditions: ATCC 9431, 18 h
Lung [31] = assay: In vivo stability in C57Bl/6 mouse lung assessed as compound hydrolysis at 10 mg/kg, iv administered as single dose measured after 60 mins by LC-MS/MS analysis; format: ADME, organism-based; conditions: 1 h
[32] = In vivo stability in C57Bl/6 mouse muscle assessed as compound hydrolysis at 10 mg/kg, iv administered as single dose measured after 60 mins by LC-MS/MS analysis; format: ADME, organism-based, Muscle tissue; conditions: 1 h
[33] = In vivo stability in C57Bl/6 mouse adipose tissue assessed as compound hydrolysis at 10 mg/kg, iv administered as single dose measured after 60 mins by LC-MS/MS analysis; format: ADME, organism-based; conditions: 1 h
Plasma [34] = assay: In vivo stability in C57Bl/6 mouse plasma assessed as compound hydrolysis by measuring platensic acid level at 10 mg/kg, iv administered as single dose measured after 60 mins by LC-MS/MS analysis relative to platensimycin; format: ADME, organism-based; conditions: 1 h
Liver [35] = assay: In vivo stability in C57Bl/6 mouse liver assessed as compound hydrolysis by measuring platensic acid level at 10 mg/kg, iv administered as single dose measured after 60 mins by LC-MS/MS analysis relative to platensimycin; format: ADME, organism-based; conditions: 1 h
Kidney [36] = assay: In vivo stability in C57Bl/6 mouse kidney assessed as compound hydrolysis by measuring platensic acid level at 10 mg/kg, iv administered as single dose measured after 60 mins by LC-MS/MS analysis relative to platensimycin; format: ADME, organism-based; conditions: 1 h
[37] = In vivo stability in C57Bl/6 mouse urine assessed as compound hydrolysis by measuring platensic acid level at 10 mg/kg, iv administered as single dose measured after 60 mins by LC-MS/MS analysis relative to platensimycin; format: ADME, organism-based; conditions: 1 h
Plasma [38] = assay: In vivo stability in C57Bl/6 mouse plasma assessed as compound hydrolysis at 10 mg/kg, iv administered as single dose measured after 60 mins by LC-MS/MS analysis; format: ADME, organism-based; conditions: 1 h
Liver [39] = assay: In vivo stability in C57Bl/6 mouse liver assessed as compound hydrolysis at 10 mg/kg, iv administered as single dose measured after 60 mins by LC-MS/MS analysis; format: ADME, organism-based; conditions: 1 h
Kidney [40] = assay: In vivo stability in C57Bl/6 mouse kidney assessed as compound hydrolysis at 10 mg/kg, iv administered as single dose measured after 60 mins by LC-MS/MS analysis; format: ADME, organism-based; conditions: 1 h
[41] = In vivo stability in C57Bl/6 mouse urine assessed as compound hydrolysis at 10 mg/kg, iv administered as single dose measured after 60 mins by LC-MS/MS analysis; format: ADME, organism-based; conditions: 1 h
Brain [42] = assay: In vivo stability in C57Bl/6 mouse brain assessed as compound hydrolysis at 10 mg/kg, iv administered as single dose measured after 60 mins by LC-MS/MS analysis; format: ADME, organism-based; conditions: 1 h

- half-life [1]: 3.5 h
- half-life [2]: 3.2 h
- Cmax [3]: 20000 nM
- Cmax [4]: 2100 nM
- AUC (Mus musculus [5]): 10 µM·h
- AUC (Mus musculus [6]): 1.5 µM·h
- clearance [7]: 16 mL/min/kg
- Vd [8]: 0.9 L/kg
- bioavailability [9]: 4.4%
- concentration at 2 h [10]: 10 nM
- Drug uptake (Plasma [11]): Active
- Drug uptake (Liver [12]): Active
- Drug uptake (Lung [13]): Active
- Drug uptake (Kidney [14]): Active
- Drug uptake [15]: Active
- Drug uptake [16]: Active
- Kp at 1 h [17]: 6.2
- Kp at 1 h [18]: 0.5
- Kp at 1 h [19]: 0.5
- Kp at 1 h [20]: 0.1
- Kp at 1 h [21]: 0.1
- Drug uptake (Brain [22]): Not Active
- Papp [23]: 1.3 ×10⁻⁷ cm/s
- Drug uptake [24]: Active
- Ratio [25]: 3790
- microsomal CLint at 1 µM [26]: 13.6 µL/min/mg
- Drug metabolism [27]: Metabolite_Detected
- Drug metabolism [28]: Metabolite_Detected
- Drug metabolism [29]: Metabolite_Detected
- Drug metabolism [30]: Metabolite_Detected
- MIC (Staphylococcus aureus): 0.5 µg/mL (≈ 1.13 µM)
- MIC (Micrococcus luteus): 0.5 µg/mL (≈ 1.13 µM)
- Stability (Lung [31]): Stable
- Stability [32]: Stable
- Stability [33]: Stable
- fold change (FC) (Plasma [34]): 0.1
- fold change (FC) (Liver [35]): 0.04
- fold change (FC) (Kidney [36]): 0.2
- fold change (FC) [37]: 0.0005
- Stability (Plasma [38]): Unstable
- Stability (Liver [39]): Unstable
- Stability (Kidney [40]): Unstable
- Stability [41]: Unstable
- Stability (Brain [42]): Stable
Structure (SMILES): C[C@]12C[C@@]34C=CC(=O)[C@@](C)(CCC(=O)Nc5c(O)ccc(C(=O)O)c5O)[C@@H]3[C@H](C[C@@H]1C4)O2
